Experiments:
Test in all cases: relative viability (nuclei count vs DMSO), 5 days (fraction); higher = more cells survive
[1] = compound: C=CCn1c(=O)c2cnc(Nc3ccc(N4CCN(C)CC4)cc3)nc2n1-c1cccc(C(C)(C)O)n1 [Adavosertib] + CC(=O)c1c(C)c2cnc(Nc3ccc(N4CCNCC4)cn3)nc2n(C2CCCC2)c1=O [Palbociclib] (partner 0.5 µM)
How it was run: (§1)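 Each reported value is a median over duplicate plates. It expresses relative viability: treated-well nuclei count divided by vehicle-well nuclei count. Lung cancer cell lines in 1536-well plates were dosed by pin tool a day after seeding, alone with one drug or with a fixed anchor-drug dose plus five library-drug doses (not always all listed) in √10 steps, and nuclei were counted after 5 days.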

Nelarabine + Pictilisib = compound: COc1nc(N)nc2c1ncn2[C@@H]1O[C@H](CO)[C@@H](O)[C@@H]1O [Nelarabine] + CS(=O)(=O)N1CCN(Cc2cc3nc(-c4cccc5[nH]ncc45)nc(N4CCOCC4)c3s2)CC1 [Pictilisib] (partner 1 µM)
How it was run: as §1

Nelarabine + Pemetrexed = compound: COc1nc(N)nc2c1ncn2[C@@H]1O[C@H](CO)[C@@H](O)[C@@H]1O [Nelarabine] + Nc1nc2[nH]cc(CCc3ccc(C(=O)N[C@@H](CCC(=O)O)C(=O)O)cc3)c2c(=O)[nH]1 [Pemetrexed] (partner 0.2 µM)
How it was run: as §1

Adavosertib + Alpelisib = compound: C=CCn1c(=O)c2cnc(Nc3ccc(N4CCN(C)CC4)cc3)nc2n1-c1cccc(C(C)(C)O)n1 [Adavosertib] + Cc1nc(NC(=O)N2CCC[C@H]2C(N)=O)sc1-c1ccnc(C(C)(C)C(F)(F)F)c1 [Alpelisib] (partner 2 µM)
How it was run: as §1

| Cell Line | relative viability ([1]; first compound 0.01 µM) | relative viability ([1]; first compound 0.03162 µM) | relative viability ([1]; first compound 0.1 µM) | relative viability ([1]; first compound 0.3162 µM) | relative viability (Nelarabine + Pictilisib; first compound 0.01 µM) | relative viability (Nelarabine + Pictilisib; first compound 0.03162 µM) | relative viability (Nelarabine + Pictilisib; first compound 0.1 µM) | relative viability (Nelarabine + Pictilisib; first compound 0.3162 µM) | relative viability (Nelarabine + Pictilisib; first compound 1 µM) | relative viability (Nelarabine + Pemetrexed; first compound 0.01 µM) | relative viability (Nelarabine + Pemetrexed; first compound 0.03162 µM) | relative viability (Nelarabine + Pemetrexed; first compound 0.1 µM) | relative viability (Nelarabine + Pemetrexed; first compound 0.3162 µM) | relative viability (Nelarabine + Pemetrexed; first compound 1 µM) | relative viability (Adavosertib + Alpelisib; first compound 0.01 µM) | relative viability (Adavosertib + Alpelisib; first compound 0.03162 µM) | relative viability (Adavosertib + Alpelisib; first compound 0.1 µM) | relative viability (Adavosertib + Alpelisib; first compound 0.3162 µM) |
| --- | --- | --- | --- | --- | --- | --- | --- | --- | --- | --- | --- | --- | --- | --- | --- | --- | --- | --- |
| SK-MES-1 | 0.343 | 0.337 | 0.305 | 0.25 | 0.34 | 0.318 | 0.331 | 0.358 | 0.373 | 1.17 | 0.951 | 0.957 | 1.03 | 1.07 | 0.956 | 0.844 | 0.924 | 0.618 |
| NCI-H2170 | 0.403 | 0.419 | 0.399 | 0.36 | 0.326 | 0.253 | 0.253 | 0.34 | 0.316 | 0.269 | 0.262 | 0.228 | 0.318 | 0.303 | 0.849 | 0.804 | 0.678 | 0.705 |
| NCI-H1648 | 0.311 | 0.29 | 0.219 | 0.244 |  |  |  |  |  |  | 0.805 |  | 0.885 | 0.75 |  |  |  |  |
| UMC-11 | 0.326 | 0.339 | 0.348 | 0.351 | 1.05 | 0.729 | 0.874 | 1.02 | 0.898 | 0.992 | 0.696 | 0.94 | 0.816 | 0.884 | 1.03 | 1.02 | 1.18 | 1.04 |
| HCC-15 | 0.744 | 0.706 | 0.739 | 0.899 | 0.893 | 0.669 | 0.76 | 0.871 | 0.832 | 0.233 | 0.242 | 0.218 | 0.212 | 0.217 | 0.904 | 0.916 | 0.987 | 1.04 |
| HCC-78 | 0.531 | 0.525 | 0.508 | 0.428 | 0.156 | 0.215 |  | 0.261 | 0.231 | 0.879 | 0.925 |  | 0.953 | 0.886 | 0.347 | 0.305 | 0.443 | 0.278 |
| NCI-H647 | 0.408 | 0.461 | 0.261 | 0.316 | 0.475 | 0.363 | 0.492 | 0.445 | 0.37 | 0.17 | 0.162 | 0.154 | 0.194 | 0.217 | 1.1 | 1.1 | 1.02 | 0.508 |
| NCI-H2009 | 0.195 | 0.2 | 0.258 | 0.215 | 1.31 | 0.917 | 0.841 | 1.03 | 0.93 | 1.09 | 1.05 | 1.07 | 1.08 | 1.11 | 1.13 | 1.22 | 1.13 | 1.17 |
| NCI-H520 | 0.22 | 0.214 | 0.229 | 0.246 | 0.387 | 0.256 | 0.345 | 0.322 | 0.314 | 0.768 | 0.584 | 0.687 | 0.842 | 0.786 | 0.884 | 0.887 | 1.03 | 0.717 |
| RERF-LC-KJ | 0.977 | 1.07 | 1.14 | 1.03 | 0.582 | 0.652 | 0.559 | 0.578 | 0.422 | 0.477 | 0.424 | 0.458 | 0.489 | 0.49 | 0.855 | 0.784 | 0.764 | 0.793 |
| NCI-H441 | 0.234 | 0.25 | 0.241 | 0.197 | 0.488 | 0.376 | 0.543 | 0.461 | 0.582 | 0.249 | 0.277 | 0.27 | 0.238 | 0.282 | 0.807 | 0.745 | 0.764 | 0.596 |
| NCI-H1666 | 0.613 | 0.64 | 0.662 | 0.699 | 0.524 | 0.419 | 0.371 | 0.409 | 0.551 | 0.957 | 0.919 | 0.872 | 0.936 | 0.834 | 0.85 | 0.889 | 0.934 | 0.796 |
| NCI-H1755 | 0.449 | 0.41 | 0.443 | 0.446 | 0.488 | 0.429 | 0.507 | 0.429 | 0.522 | 0.654 | 0.377 | 0.363 | 0.501 | 0.451 | 0.983 | 0.859 | 0.856 | 0.868 |
| COR-L23 | 0.291 | 0.338 | 0.274 | 0.205 | 1.13 | 0.635 | 0.738 | 0.934 | 0.864 | 0.205 | 0.194 | 0.193 | 0.184 | 0.203 | 0.778 | 0.687 | 0.729 | 0.243 |
| SK-LU-1 | 0.405 | 0.467 | 0.398 | 0.342 | 0.684 | 0.396 | 0.546 | 0.606 | 0.613 | 1.19 | 0.796 | 1.06 | 0.995 | 1.04 | 1.04 | 1.01 | 0.656 | 0.291 |
| SW 900 | 0.403 | 0.633 | 0.567 | 0.538 |  |  |  |  |  | 0.53 | 0.538 | 0.482 | 0.526 | 0.506 |  |  |  |  |
| PC-3 [JPC-3] |  | 0.502 | 0.28 | 0.544 | 0.599 | 0.853 | 0.7 | 0.895 | 0.749 | 0.9 | 0.866 | 1.36 | 1.17 | 0.751 | 0.99 | 1.03 | 1.08 | 1.07 |
| EKVX | 0.365 | 0.354 | 0.344 | 0.5 | 0.547 | 0.373 | 0.359 | 0.508 | 0.474 | 0.431 | 0.436 | 0.417 | 0.506 | 0.46 | 0.843 | 0.858 | 0.833 | 0.911 |
| NCI-H322M | 0.439 | 0.479 | 0.417 | 0.463 | 0.505 | 0.523 | 0.433 | 0.568 | 0.542 | 0.601 | 0.565 | 0.631 | 0.653 | 0.61 |  | 0.77 | 0.711 | 0.543 |

Reference: the supplement of paper PMC10307832
